Results on 14 compounds are retold here after US8735437B2, “Imidazolidine carboxamide derivatives as lipase and phospholipase inhibitors” (Sanofi, priority 2007, dated 2014).

Structures are written as SMILES.

The assay deals with T1, endothelial lipase (EL) (Homo sapiens, UniProt Q9Y5X9).
T1 construct: made in house; host or cells: recombinant cell lines (CHO, HEK293); concentrated conditioned medium used as enzyme solution
T1 sequence (Q9Y5X9 21-500): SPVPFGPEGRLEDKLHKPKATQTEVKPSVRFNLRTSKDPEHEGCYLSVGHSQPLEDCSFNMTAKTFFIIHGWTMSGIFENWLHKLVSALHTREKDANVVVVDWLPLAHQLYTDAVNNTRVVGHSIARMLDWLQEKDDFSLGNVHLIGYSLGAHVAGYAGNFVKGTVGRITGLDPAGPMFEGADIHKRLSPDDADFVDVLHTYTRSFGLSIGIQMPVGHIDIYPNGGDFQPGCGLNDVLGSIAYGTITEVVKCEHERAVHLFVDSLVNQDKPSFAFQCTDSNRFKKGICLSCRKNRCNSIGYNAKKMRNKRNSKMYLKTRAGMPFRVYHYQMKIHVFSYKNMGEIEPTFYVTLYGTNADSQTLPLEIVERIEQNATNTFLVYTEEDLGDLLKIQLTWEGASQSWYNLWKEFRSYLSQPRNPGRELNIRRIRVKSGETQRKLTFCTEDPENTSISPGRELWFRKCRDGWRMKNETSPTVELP
Put plainly: EL inhibition assay (EL activity assay, fluorescent Bodipy-labelled phospholipid substrate). Format: biochemical. The settings on record: enzyme solution = conditioned medium of recombinant cell lines (CHO, HEK293); 37° C., 90 minutes; pH=7.4. From the text: EL is released as secretory protein in high concentration into cell culture medium (conditioned medium) by recombinant cell lines (CHO, HEK293). This is employed as enzyme solution after concentration.
The phospholipase-specific substrate 1,2-bis(4,4-difluoro-5,7-dimethyl-4-bora-3a,4a-diaza-s-indacene-3-undecanoyl)-sn-glycero-3-phosphocholine, (manufacturer Molecular Probes) is used to characterize the enzymatic activity of endothelial lipase and the effect of inhibitors. Hydrolysis of the A1 ester linkage of this phospholipid by the enzyme liberates a fatty acid labeled with the fluorescent dye Bodipy which can be detected after separation by thin-layer chromatography on an HPTLC plate (silica gel 60, Merck) or directly in the reaction vessel by measuring the fluorescence. The substrate solution is prepared by dissolving 100 μg of 1,2-bis(4,4-difluoro-5,7-dimethyl-4-bora-3a,4a-diaza-s-indacene-3-undecanoyl)-sn-glycero-3-phospho-choline (manufacturer Molecular Probes) in 100 μl of DMSO and taking it up in 2.4 mg of tripalmitin (Sigma) in 393 μl of chloroform which contains 20 mg/ml of DOP-choline (1,2-dioleoyl-sn-glycero-3-phosphocholine). 39.3 μl of this lipid mixture are transferred into a fresh reaction vessel. After evaporation of the solvent, the lipid mixture is dissolved in 4 ml of 200 mM TRIS-HCl, 150 mM sodium chloride, pH=7.4, by sonication twice. The subsequent enzymic reaction takes place at 37° C. for 90 minutes. For this purpose, 20 μl of the substrate solution are incubated with 2 μl of inhibitor of appropriate concentration (dissolved in 10% DMSO, 10% strength DMSO solution is used as control) and 2 μl of enzyme solution (conditioned medium). Then 4 μl of the assay mixture are loaded onto an HPTLC plate (silica gel 60, Merck), and the liberated fluorescent dye is separated for detection with an eluent (diethyl ether:petroleum benzine:acetic acid [78:22:1]). After evaporation of the eluent, the plate is read in a fluorescence scanner. An increased release of the fluorescent dye in the uninhibited reaction is to be observed as a measure of the enzymic activity.
The enzymatic activity is reduced as a function of the inhibitor concentration used, and the inhibitor concentration at which a half-maximum enzymic activity is observed is called IC50.
Turning to `CCCCCCNC(=O)N1C(=O)CN(Cc2ccccc2)C1=O` [Example 1, 3-Benzyl-2,5-dioxoimidazolidine-1-hexylcarboxamide], the concentration for half-maximal inhibition (IC50) was determined as 0.005 µM.

Consider `Cc1ccccc1CNC(=O)N1C(=O)CN(Cc2ccccc2)C1=O` [Example 2, 3-Benzyl-2,5-dioxoimidazolidine-1-(2-methylbenzyl)carboxamide], for which the IC50 worked out at 0.147 µM. Regarding `O=C1CN(Cc2ccccc2)C(=O)N1C(=O)N[C@H]1CCc2ccccc21` [Example 3, 3-Benzyl-2,5-dioxoimidazolidine-1-((S)-indan-1-yl)carboxamide], the IC50 stood at 0.145 µM. On to `O=C1CN(Cc2ccccc2)C(=O)N1C(=O)N[C@@H]1CCc2ccccc21` [Example 4, 3-Benzyl-2,5-dioxoimidazolidine-1-((R)-indan-1-yl)carboxamide], for which the half-inhibitory concentration (IC50) came out at 0.0005 µM. The result for `O=C1CN(Cc2ccccc2)C(=O)N1C(=O)NC1CCCc2ccccc21` (centres unmarked) [Example 5, 3-Benzyl-2,5-dioxoimidazolidine-1-(1,2,3,4-tetrahydronaphthalen-1-yl)carboxamide] reads 0.008 µM. The result for `O=C1CN(Cc2ccccc2)C(=O)N1C(=O)NCCc1cccs1` [Example 6, 3-Benzyl-2,5-dioxoimidazolidine-1-(2-thiophen-2-ylethyl)carboxamide] reads 0.143 µM. The same measure for `CCCCCCCNC(=O)N1C(=O)CN(Cc2ccccc2)C1=O` [Example 7, 3-Benzyl-2,5-dioxoimidazolidine-1-heptylcarboxamide]: 0.083 µM.

For `CCCCCCNC(=O)N1C(=O)CN(C)C1=O` [Example 8, 3-Methyl-2,5-dioxoimidazolidine-1-hexyl carboxamide], the 50% inhibitory concentration (IC50) was found to be 0.047 µM. As for `CCCCCCNC(=O)N1C(=O)N(C)C(C)(C)C1=O` [Example 9, 3,4,4-Trimethyl-2,5-dioxoimidazolidine-1-hexylcarboxamide], the IC50 worked out at 0.037 µM.

`CCCCCCCNC(=O)N1C(=O)CN(CCCC)C1=O` [Example 21, 3-Butyl-2,5-dioxoimidazolidine-1-heptylcarboxamide]: the IC50 was 0.059 µM.

Consider `CCCCCCNC(=O)N1C(=O)C2CCCCN2C1=O` (centres unmarked) [Example 23, 1,3-Dioxohexahydroimidazo[1,5-a]pyridine-2-hexylcarboxamide], for which the concentration for half-maximal inhibition (IC50) turned out to be 0.044 µM.

Regarding `CCCCCCNC(=O)N1C(=O)C2Cc3ccccc3CN2C1=O` (centres unmarked) [Example 24, 1,3-Dioxo-1,5,10,10a-tetrahydroimidazo[1,5-b]isoquinoline-2-hexylcarboxamide], the IC50 came out at 0.039 µM. Regarding `O=C(NC1CCCc2ccccc21)N1C(=O)C2Cc3ccccc3CN2C1=O` (centres unmarked) [Example 28, 1,3-Dioxo-1,5,10,10a-tetrahydroimidazo[1,5-b]isoquinoline-2-(1,2,3,4-tetra-hydronaphthalen-1-yl)carboxamide], the IC50 came out at 0.059 µM.

With `Cc1ccccc1CNC(=O)N1C(=O)C2Cc3ccccc3CN2C1=O` (centres unmarked) [Example 29, 1,3-Dioxo-1,5,10,10a-tetrahydroimidazo[1,5-b]isoquinoline-2-methylbenzyl-2-carboxamide], the concentration for half-maximal inhibition (IC50) stood at 0.143 µM.
